Source: ChEMBL document CHEMBL1156067, “Pyrimidine-based antagonists of h-MCH-R1 derived from ATC0175: in vitro profiling and in vivo evaluation” (Bioorg Med Chem Lett, 2009)

The molecules below were run against T1, Alpha-2A adrenergic receptor (Homo sapiens, UniProt P08913) (assay: Displacement of [3H]MK-912 from human adrenergic alpha2A receptor).
T1 sequence (P08913 whole entry): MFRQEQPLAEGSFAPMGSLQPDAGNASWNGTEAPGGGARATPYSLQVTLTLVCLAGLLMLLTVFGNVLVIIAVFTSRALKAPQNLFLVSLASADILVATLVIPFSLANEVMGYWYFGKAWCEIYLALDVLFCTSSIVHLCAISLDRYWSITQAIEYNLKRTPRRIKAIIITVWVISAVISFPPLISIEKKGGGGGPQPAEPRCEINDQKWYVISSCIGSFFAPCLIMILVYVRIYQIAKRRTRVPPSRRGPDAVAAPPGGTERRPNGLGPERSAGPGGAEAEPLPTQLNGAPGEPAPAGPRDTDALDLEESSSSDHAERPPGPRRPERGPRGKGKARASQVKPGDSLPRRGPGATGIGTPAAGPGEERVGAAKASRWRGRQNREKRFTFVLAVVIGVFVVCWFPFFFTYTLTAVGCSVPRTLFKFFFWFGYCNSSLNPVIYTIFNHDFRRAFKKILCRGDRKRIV

| IC50 [µM] | SMILES |
| --- | --- |
| 0.13 | Cc1cc(N(C)C)nc(N[C@H]2CC[C@@H](NC(=O)c3ccc(Cl)c(Cl)c3)CC2)n1 |
| 1.77 | Cc1ccc(C(=O)N[C@H]2CC[C@@H](Nc3ncc(C)c(N(C)C)n3)CC2)cc1 |
| 0.21 | Cc1cnc(N[C@H]2CC[C@@H](CNC(=O)c3ccc(F)c(F)c3)CC2)nc1N(C)C |
| 0.58 | Cc1cccc(C(=O)N[C@H]2CC[C@@H](Nc3ncc(C)c(N(C)C)n3)CC2)c1 |
| 0.2 | Cc1cc(N(C)C)nc(N[C@H]2CC[C@@H](NC(=O)c3cc(C(F)(F)F)cc(C(F)(F)F)c3)CC2)n1 |

Each molecule was assayed against Melanin-concentrating hormone receptor 1 (Homo sapiens, UniProt Q99705) (assay: Antagonist activity at CART form of human MCH1 receptor expressed in HEK293 cells coexpressing Galphaq assessed as inhibition of MCH-induced intracellular calcium level by FLIPR assay).
Format: functional, cell-based

Melanin-concentrating hormone receptor 1, sequence (Q99705 whole entry, looked up): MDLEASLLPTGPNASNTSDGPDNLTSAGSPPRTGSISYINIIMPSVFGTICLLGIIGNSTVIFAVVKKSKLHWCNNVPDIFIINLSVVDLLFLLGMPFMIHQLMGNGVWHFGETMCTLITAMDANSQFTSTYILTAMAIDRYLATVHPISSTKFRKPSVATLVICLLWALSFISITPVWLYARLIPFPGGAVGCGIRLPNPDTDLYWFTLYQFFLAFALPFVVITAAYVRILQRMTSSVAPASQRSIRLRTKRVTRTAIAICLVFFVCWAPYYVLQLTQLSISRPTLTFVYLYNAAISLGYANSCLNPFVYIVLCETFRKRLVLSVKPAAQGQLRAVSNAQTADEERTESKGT

| IC50 [µM] | SMILES |
| --- | --- |
| 0.0048 | Cc1cc(N(C)C)nc(N[C@H]2CC[C@@H](NC(=O)c3ccc(Cl)c(Cl)c3)CC2)n1 |
| 0.013 | Cc1ccc(C(=O)N[C@H]2CC[C@@H](Nc3ncc(C)c(N(C)C)n3)CC2)cc1 |
| 0.12 | Cc1cnc(N[C@H]2CC[C@@H](CNC(=O)c3ccc(F)c(F)c3)CC2)nc1N(C)C |
| 0.0029 | Cc1cccc(C(=O)N[C@H]2CC[C@@H](Nc3ncc(C)c(N(C)C)n3)CC2)c1 |
| 0.008 | Cc1cc(N(C)C)nc(N[C@H]2CC[C@@H](NC(=O)c3cc(C(F)(F)F)cc(C(F)(F)F)c3)CC2)n1 |

These molecules were tested against T2, Alpha-1A adrenergic receptor (Homo sapiens, UniProt P35348) (assay: Displacement of [3H]prazosin from human adrenergic alpha1A receptor).
T2 sequence (P35348 whole entry): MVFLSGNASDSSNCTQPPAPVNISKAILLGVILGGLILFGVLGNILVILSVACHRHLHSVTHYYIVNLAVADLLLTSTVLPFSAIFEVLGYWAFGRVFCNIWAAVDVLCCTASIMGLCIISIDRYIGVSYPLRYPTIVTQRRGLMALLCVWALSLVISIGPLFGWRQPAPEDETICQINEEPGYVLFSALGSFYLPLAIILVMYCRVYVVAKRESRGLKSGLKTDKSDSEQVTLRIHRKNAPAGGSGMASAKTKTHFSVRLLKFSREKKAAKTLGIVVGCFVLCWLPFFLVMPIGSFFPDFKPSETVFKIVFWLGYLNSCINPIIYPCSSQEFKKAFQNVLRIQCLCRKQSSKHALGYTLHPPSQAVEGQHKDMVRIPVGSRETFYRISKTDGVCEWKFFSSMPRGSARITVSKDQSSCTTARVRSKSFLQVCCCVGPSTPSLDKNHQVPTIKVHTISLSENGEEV

| IC50 [µM] | SMILES |
| --- | --- |
| > 10 | Cc1cc(N(C)C)nc(N[C@H]2CC[C@@H](NC(=O)c3ccc(Cl)c(Cl)c3)CC2)n1 |
| > 10 | Cc1ccc(C(=O)N[C@H]2CC[C@@H](Nc3ncc(C)c(N(C)C)n3)CC2)cc1 |
| 3.6 | Cc1cnc(N[C@H]2CC[C@@H](CNC(=O)c3ccc(F)c(F)c3)CC2)nc1N(C)C |
| 2.79 | Cc1cccc(C(=O)N[C@H]2CC[C@@H](Nc3ncc(C)c(N(C)C)n3)CC2)c1 |
| 1.32 | Cc1cc(N(C)C)nc(N[C@H]2CC[C@@H](NC(=O)c3cc(C(F)(F)F)cc(C(F)(F)F)c3)CC2)n1 |

The molecules below were run against 5-hydroxytryptamine receptor 2B (Homo sapiens, UniProt P41595) (assay: Displacement of [3H]rauwolsine from human 5HT2B receptor).
5-hydroxytryptamine receptor 2B, sequence (P41595 whole entry): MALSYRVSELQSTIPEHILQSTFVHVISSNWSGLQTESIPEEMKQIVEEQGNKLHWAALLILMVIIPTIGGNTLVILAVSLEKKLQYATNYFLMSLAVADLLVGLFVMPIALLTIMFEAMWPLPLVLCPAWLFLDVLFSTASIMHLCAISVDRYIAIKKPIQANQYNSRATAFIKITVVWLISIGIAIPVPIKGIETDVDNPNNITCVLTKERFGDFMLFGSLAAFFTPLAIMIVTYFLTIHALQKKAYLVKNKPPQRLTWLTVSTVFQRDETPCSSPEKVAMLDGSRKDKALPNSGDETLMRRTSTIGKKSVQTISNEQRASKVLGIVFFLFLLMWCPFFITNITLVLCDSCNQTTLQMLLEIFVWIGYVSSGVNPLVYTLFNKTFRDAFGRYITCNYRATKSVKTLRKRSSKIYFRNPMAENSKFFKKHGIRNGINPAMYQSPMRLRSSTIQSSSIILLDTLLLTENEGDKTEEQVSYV

| IC50 [µM] | SMILES |
| --- | --- |
| 0.13 | Cc1cc(N(C)C)nc(N[C@H]2CC[C@@H](NC(=O)c3ccc(Cl)c(Cl)c3)CC2)n1 |
| 0.12 | Cc1ccc(C(=O)N[C@H]2CC[C@@H](Nc3ncc(C)c(N(C)C)n3)CC2)cc1 |
| 0.32 | Cc1cnc(N[C@H]2CC[C@@H](CNC(=O)c3ccc(F)c(F)c3)CC2)nc1N(C)C |
| 0.031 | Cc1cccc(C(=O)N[C@H]2CC[C@@H](Nc3ncc(C)c(N(C)C)n3)CC2)c1 |
| > 10 | Cc1cc(N(C)C)nc(N[C@H]2CC[C@@H](NC(=O)c3cc(C(F)(F)F)cc(C(F)(F)F)c3)CC2)n1 |

What follows are molecules tested against Histamine H1 receptor (Homo sapiens, UniProt P35367) (assay: Displacement of [3H]pyrilamine from human histamine H1 receptor).
Histamine H1 receptor, sequence (P35367 whole entry): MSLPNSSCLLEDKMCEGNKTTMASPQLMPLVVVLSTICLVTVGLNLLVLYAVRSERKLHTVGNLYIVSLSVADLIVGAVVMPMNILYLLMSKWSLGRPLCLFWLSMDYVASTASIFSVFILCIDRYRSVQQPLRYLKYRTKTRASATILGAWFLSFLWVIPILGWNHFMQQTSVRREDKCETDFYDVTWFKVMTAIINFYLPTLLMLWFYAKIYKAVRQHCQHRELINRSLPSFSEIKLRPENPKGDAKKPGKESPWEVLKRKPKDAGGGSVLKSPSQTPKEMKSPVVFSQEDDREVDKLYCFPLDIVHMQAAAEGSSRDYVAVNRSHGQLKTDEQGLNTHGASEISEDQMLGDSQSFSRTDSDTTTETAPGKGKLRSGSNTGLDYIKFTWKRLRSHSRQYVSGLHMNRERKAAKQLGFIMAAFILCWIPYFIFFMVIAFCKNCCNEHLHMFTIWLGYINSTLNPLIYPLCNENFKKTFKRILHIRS

| IC50 [µM] | SMILES |
| --- | --- |
| 0.39 | Cc1cc(N(C)C)nc(N[C@H]2CC[C@@H](NC(=O)c3ccc(Cl)c(Cl)c3)CC2)n1 |
| 0.17 | Cc1ccc(C(=O)N[C@H]2CC[C@@H](Nc3ncc(C)c(N(C)C)n3)CC2)cc1 |
| 0.92 | Cc1cnc(N[C@H]2CC[C@@H](CNC(=O)c3ccc(F)c(F)c3)CC2)nc1N(C)C |
| 1.6 | Cc1cccc(C(=O)N[C@H]2CC[C@@H](Nc3ncc(C)c(N(C)C)n3)CC2)c1 |
| 1.21 | Cc1cc(N(C)C)nc(N[C@H]2CC[C@@H](NC(=O)c3cc(C(F)(F)F)cc(C(F)(F)F)c3)CC2)n1 |
